Calls of active or inactive are those of the source.
Columns and labels:
[1] = inhibitors of intracellular T. cruzi replication, confirmation, NIH3T3 host cells, beta-gal luminescence (AID 2044); assay type: functional, cell-based;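 further: intracellular parasites grown in NIH/3T3 mouse fibroblasts as host cells; luminescent beta-galactosidase reporter signal from transgenic T. cruzi replicating inside host cells; inhibitors lower the luminescence signal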
[2] = T. cruzi growth inhibition in host cells, dose response, cell-based, plate reader, dry powder, set 2 (AID 652275); assay type: functional
[3] = T. cruzi intracellular amastigote growth inhibition, dose response, imaging, CA-I/72 strain, bovine embryo skeletal muscle, dry powder (AID 651885); assay type: functional, cell-based
[4] = Luminescence Cell-Based/Microorganism Confirmation at Dose of Inhibitors of Trypanosoma cruzi Infection. [Related pubchem assays: 1885, 1968 ]; assay type: functional
[5] = Luminescence Cell-Based Secondary HTS screen to identify cytotoxic compounds of NIH3T3 cells. [Related pubchem assays: 1885, 1968 ]; assay type: functional
[6] = cytotoxicity toward NIH3T3 fibroblasts, dose response, counter-screen, cell-based, ATP luminescence, mouse fibroblasts (AID 2010); assay type: functional;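 further: cells exposed to compound for about 90 hours before reading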
[7] = inhibitors of Trypanosoma cruzi host-cell infection, confirmation, beta-gal luminescence, NIH3T3 host cells (AID 2630); assay type: functional, cell-based; settings: Mus musculus
[8] = target: FAD-linked sulfhydryl oxidase ALR (Homo sapiens, UniProt P55789); experiment: inhibitors of human ALR sulfhydryl oxidase, dose response, biochemical, H2O2 detection, luminescence, cherry-pick (AID 493248)
Sequence of FAD-linked sulfhydryl oxidase ALR (P55789 whole entry): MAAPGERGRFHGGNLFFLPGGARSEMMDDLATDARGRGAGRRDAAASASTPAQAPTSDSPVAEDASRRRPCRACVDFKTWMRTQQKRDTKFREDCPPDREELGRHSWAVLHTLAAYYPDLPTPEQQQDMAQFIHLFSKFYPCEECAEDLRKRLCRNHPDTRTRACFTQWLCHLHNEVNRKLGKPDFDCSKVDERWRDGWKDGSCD

[9] = target: T1, Mannose-6-phosphate isomerase (Homo sapiens, UniProt P34949); experiment: human PMI inhibitors, high substrate, primary screen, biochemical, fluorescence intensity, high mannose 6-phosphate (AID 1220)
T1 sequence (P34949 whole entry): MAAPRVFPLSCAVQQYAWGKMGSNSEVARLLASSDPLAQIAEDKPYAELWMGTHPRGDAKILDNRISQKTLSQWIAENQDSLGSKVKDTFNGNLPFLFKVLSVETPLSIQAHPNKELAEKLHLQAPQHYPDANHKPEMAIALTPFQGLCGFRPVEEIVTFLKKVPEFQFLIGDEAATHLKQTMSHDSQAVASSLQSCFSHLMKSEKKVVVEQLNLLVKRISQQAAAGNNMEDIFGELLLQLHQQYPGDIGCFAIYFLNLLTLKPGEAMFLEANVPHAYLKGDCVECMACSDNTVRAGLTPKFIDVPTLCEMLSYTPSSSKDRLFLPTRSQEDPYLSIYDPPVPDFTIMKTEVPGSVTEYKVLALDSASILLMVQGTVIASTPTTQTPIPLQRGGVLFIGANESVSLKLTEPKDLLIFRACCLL

[10] = target: T1, Mannose-6-phosphate isomerase; experiment: inhibitors of human PMI, primary screen, biochemical, fluorescence intensity, coupled assay (AID 1209)
Large T antigen = Large T antigen (Simian virus 40, UniProt P03070); assay type: functional, Betapolyomavirus macacae;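 further: Confirmatory-stage PubChem screen for compounds that inhibit SV40 T antigen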
Sequence of Large T antigen (P03070 whole entry): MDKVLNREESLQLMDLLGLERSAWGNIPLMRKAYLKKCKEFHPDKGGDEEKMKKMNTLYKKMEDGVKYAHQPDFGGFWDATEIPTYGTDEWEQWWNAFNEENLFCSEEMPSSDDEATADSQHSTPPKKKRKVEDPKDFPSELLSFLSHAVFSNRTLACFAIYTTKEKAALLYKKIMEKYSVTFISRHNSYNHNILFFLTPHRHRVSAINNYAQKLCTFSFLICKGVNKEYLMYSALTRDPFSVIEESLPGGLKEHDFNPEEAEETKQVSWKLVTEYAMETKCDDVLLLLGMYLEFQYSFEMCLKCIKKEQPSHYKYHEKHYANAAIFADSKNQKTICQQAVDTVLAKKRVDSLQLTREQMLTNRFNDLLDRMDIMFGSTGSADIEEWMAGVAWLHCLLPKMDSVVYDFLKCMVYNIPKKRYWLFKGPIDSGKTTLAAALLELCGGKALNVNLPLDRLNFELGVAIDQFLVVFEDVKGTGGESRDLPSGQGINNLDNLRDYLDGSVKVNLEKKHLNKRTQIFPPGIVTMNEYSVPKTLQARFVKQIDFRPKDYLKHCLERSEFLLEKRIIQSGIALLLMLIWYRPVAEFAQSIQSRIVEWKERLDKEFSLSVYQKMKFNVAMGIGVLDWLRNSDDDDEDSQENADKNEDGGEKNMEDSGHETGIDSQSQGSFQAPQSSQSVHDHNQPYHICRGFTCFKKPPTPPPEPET

Insulin-degrading enzyme = target: T2, Insulin-degrading enzyme (Homo sapiens, UniProt P14735); experiment: Dose Response: Fluorescence polarization-based cell-based high throughput dose response assay for inhibitors of insulin-degrading enzyme (IDE). [Related pubchem assays: 434962 (Primary screen (IDE inhibitors in singlicate)), 449730 (Counterscreen (Cytotoxicity in triplicate)), 435028 (Confirmation (IDE inhibitors in triplicate)), 434984 (Summary …; assay type: functional
T2 sequence (P14735 whole entry): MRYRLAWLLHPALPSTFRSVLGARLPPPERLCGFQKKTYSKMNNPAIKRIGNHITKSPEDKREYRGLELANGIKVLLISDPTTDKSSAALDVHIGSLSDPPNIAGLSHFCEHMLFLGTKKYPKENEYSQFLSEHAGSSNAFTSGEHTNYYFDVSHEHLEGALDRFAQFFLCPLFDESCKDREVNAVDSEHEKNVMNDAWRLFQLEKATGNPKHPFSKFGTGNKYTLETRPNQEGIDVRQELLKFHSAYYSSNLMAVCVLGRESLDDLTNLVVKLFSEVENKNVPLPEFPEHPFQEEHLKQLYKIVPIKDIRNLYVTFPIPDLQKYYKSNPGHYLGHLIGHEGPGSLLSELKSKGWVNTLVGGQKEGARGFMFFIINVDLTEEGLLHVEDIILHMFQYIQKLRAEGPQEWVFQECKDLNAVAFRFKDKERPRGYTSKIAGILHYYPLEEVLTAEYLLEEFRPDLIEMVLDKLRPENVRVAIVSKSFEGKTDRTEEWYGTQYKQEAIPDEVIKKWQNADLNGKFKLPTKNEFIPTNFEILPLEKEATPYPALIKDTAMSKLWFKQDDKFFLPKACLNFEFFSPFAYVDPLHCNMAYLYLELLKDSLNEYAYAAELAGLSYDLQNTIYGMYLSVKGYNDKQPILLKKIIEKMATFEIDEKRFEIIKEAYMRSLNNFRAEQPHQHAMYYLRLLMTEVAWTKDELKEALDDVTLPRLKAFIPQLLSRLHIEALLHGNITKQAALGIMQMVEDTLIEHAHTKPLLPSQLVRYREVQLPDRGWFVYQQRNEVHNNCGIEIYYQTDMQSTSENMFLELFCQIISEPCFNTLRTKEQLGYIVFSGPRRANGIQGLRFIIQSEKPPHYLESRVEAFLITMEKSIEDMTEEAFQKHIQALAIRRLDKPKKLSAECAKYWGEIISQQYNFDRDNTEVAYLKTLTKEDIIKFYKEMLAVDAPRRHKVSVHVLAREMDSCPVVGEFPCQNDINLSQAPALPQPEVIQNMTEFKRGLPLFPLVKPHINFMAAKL

[11] = Counterscreen for IDE inhibitors: Luminescence-based cell-based high throughput dose response assay to identify compounds that are cytotoxic to HEK cells. [Related pubchem assays: 434962 (Primary screen (IDE inhibitors in singlicate)), 449730 (Counterscreen (Cytotoxicity in triplicate)), 435028 (Confirmation (IDE inhibitors in triplicate)) …; assay type: functional; settings: HEK293
[12] = target: T3, Endoribonuclease toxin MazF (Escherichia coli K-12, UniProt P0AE70); experiment: fluorescent RNA oligo signal without MazF, dose response, counter-screen for MazEF activator project, biochemical, fluorescence, single-stranded RNase substrate (AID 588502); assay type: functional
T3 sequence (P0AE70 whole entry): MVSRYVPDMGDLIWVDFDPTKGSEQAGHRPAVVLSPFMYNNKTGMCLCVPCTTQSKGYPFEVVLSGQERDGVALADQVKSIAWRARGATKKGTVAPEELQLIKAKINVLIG

[13] = target: Induced myeloid leukemia cell differentiation protein Mcl-1 (Homo sapiens, UniProt Q07820); experiment: MCL1-BIM BH3 interaction inhibitors, dose response, biochemical, fluorescence polarization, BIM-BH3 peptide, 1536-well (AID 2217)
Sequence of Induced myeloid leukemia cell differentiation protein Mcl-1 (Q07820 whole entry): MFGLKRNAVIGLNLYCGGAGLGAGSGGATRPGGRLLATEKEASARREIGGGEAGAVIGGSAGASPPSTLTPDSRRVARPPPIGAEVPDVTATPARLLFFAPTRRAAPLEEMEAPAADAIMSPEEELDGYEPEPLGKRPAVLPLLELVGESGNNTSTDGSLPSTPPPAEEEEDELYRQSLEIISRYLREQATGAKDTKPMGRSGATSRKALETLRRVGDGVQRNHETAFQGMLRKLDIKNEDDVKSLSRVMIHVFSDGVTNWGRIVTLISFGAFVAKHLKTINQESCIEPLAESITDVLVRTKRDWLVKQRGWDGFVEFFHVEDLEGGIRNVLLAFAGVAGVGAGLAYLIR

Albumin = Albumin (Bos taurus, UniProt P02769); experiment: Counterscreen for inhibitors of T-cell receptor (TCR)-CD3 interaction: Fluorescence-based biochemical high throughput dose response assay to identify inhibitors of T-cell receptor (TCR)-CD3 interaction using a TAMRA-labeled BSA probe.; assay type: functional
Sequence of Albumin (P02769 whole entry): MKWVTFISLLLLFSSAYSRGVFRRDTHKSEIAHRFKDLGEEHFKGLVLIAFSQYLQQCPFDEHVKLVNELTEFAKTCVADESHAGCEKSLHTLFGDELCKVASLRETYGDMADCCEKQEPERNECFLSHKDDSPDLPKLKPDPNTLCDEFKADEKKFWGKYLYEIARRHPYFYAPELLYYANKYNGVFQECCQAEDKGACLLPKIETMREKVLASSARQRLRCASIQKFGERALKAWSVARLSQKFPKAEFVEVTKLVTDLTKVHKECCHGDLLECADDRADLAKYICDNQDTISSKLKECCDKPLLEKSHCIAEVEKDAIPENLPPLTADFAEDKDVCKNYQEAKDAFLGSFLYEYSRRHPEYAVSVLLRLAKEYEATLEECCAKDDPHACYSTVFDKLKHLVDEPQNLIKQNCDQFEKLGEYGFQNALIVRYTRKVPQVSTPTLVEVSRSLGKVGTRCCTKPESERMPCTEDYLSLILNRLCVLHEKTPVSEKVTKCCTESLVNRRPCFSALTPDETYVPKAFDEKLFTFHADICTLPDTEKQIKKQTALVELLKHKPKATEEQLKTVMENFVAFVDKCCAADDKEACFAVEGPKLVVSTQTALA

[14] = target: T3, Endoribonuclease toxin MazF; experiment: MazF toxin RNase activators, dose response, biochemical, fluorescence, single-stranded RNA substrate, uHTS hits (AID 588481); assay type: functional
Bcl-2-like protein 1 = Bcl-2-like protein 1 (Homo sapiens, UniProt Q07817); experiment: BCL-XL inhibitors, dose response, selectivity assay for MCL1 inhibitor project, biochemical, fluorescence polarization, 1536-well (AID 2218)
Sequence of Bcl-2-like protein 1 (Q07817 whole entry): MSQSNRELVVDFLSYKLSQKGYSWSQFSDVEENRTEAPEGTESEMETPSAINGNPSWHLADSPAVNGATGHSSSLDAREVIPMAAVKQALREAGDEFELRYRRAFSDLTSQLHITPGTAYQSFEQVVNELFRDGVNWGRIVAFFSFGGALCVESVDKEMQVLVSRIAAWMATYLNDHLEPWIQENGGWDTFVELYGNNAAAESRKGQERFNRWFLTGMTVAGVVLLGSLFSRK

[15] = target: T4, Heat shock 70 kDa protein 1A (Homo sapiens, UniProt P0DMV8); experiment: Hsp70 inhibitors, probe displacement, primary screen, biochemical, fluorescence polarization (AID 583)
T4 sequence (P0DMV8 whole entry): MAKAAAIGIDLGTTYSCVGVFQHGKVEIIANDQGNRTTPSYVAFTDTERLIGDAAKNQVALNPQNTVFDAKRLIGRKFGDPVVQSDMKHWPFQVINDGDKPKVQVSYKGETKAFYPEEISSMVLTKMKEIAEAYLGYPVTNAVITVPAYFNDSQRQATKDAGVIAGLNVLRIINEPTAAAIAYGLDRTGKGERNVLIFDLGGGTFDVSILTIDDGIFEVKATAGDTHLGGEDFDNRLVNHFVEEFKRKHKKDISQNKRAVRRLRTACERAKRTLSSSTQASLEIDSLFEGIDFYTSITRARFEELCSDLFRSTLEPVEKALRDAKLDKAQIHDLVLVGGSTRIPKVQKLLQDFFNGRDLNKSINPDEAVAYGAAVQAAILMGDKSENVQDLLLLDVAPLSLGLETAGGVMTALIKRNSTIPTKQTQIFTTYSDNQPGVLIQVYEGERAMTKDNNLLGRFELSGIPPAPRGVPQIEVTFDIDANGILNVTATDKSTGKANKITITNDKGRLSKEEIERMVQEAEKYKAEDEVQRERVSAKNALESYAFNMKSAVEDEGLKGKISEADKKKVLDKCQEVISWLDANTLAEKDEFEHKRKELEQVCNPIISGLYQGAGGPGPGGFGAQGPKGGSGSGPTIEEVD

[16] = target: T4, Heat shock 70 kDa protein 1A; experiment: Hsp70 inhibitors, biochemical, TR-FRET (AID 786)
[17] = target: Sphingosine 1-phosphate receptor 2 (Homo sapiens, UniProt O95136); experiment: Dose Response Cell Based Assay for Agonists of the S1P2 Receptor of Purchased Analogues. [Related pubchem assays: 729, 843, 854, 736 ]; assay type: functional
Sequence of Sphingosine 1-phosphate receptor 2 (O95136 whole entry): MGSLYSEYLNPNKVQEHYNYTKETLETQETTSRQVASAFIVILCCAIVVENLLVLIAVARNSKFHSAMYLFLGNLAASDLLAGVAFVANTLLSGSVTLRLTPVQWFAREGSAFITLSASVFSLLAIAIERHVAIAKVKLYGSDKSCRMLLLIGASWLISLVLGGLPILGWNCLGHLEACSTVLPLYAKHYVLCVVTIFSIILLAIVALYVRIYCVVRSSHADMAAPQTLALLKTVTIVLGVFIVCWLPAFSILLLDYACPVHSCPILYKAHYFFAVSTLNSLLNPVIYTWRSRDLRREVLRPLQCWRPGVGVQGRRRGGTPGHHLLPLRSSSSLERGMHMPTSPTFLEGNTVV

Structure (SMILES): CCCn1ncc(CN2CCCC(C(=O)c3cccc(OC(C)C)c3)C2)c1C (configuration not stated)
- EC50 [1]: < 0.1 µM (active)
- AC50 [2]: 0.0589 µM (active)
- IC50 [3]: > 20 µM (inactive)
- EC50 [4]: 0.047 µM (active)
- EC50 (cells): 0.054 µM (active)
- EC50 [5]: > 195 µM (not active)
- EC50 [6]: > 60 µM (not active)
- EC50 [7]: 0.047 µM (active)

Structure (SMILES): CCn1c(=O)n(CC)c2cc(N)ccc21
- AC50 [8]: 0.754 µM (active)
- IC50 [9]: > 50 µM (not active)
- IC50 [10]: > 50 µM (not active)
- IC50 (Large T antigen): 14 µM (active)

Structure (SMILES): CCCN1C(=O)/C(=C/c2ccc(N3CCOCC3)cc2)NC1=S
- IC50 (Insulin-degrading enzyme): 33.1 µM (not active)
- IC50 [11]: 19 µM (not active)

Structure (SMILES): O=c1cc(-c2ccc(O)c(O)c2)oc2c1ccc1ccccc12
- EC50 [12]: > 99 µM (inactive)
- IC50 [13]: 23.8 µM (not active)
- IC50 (Albumin): > 94.1 µM (inactive)
- EC50 [14]: > 99 µM (inactive)
- IC50 (Bcl-2-like protein 1): > 109 µM (not active)

Structure (SMILES): Cc1cc(NC(=O)CSc2ncnc3ccccc23)no1
- IC50 [15]: > 100 µM (not active)
- IC50 [16]: > 100 µM (not active)

Structure (SMILES): Cc1cc(C(=O)CN(C)CC(=O)NC(C)(C)C)c(C)n1Cc1ccccc1
- EC50 [17]: > 30 µM (not active)

Reference: ChEMBL document CHEMBL1201862, “PubChem BioAssay data set” (2004)
